Assay results reported in patent publication US20220125877A1, “METHOD FOR TREATING COLORECTAL CANCER” (SUN YAT-SEN UNIVERSITY, priority 2019, published 2022).

Columns and labels:
[1] = tested on: metastatic colorectal cancer (mCRC) patients with T2DM; test: Retrospective study of OS and PFS of first-line chemotherapy in mCRC patients with T2DM (Kaplan-Meier, stratified Cox proportional hazard model), SYSUCC 2004-2016; assay type: in vivo, human
Source text: General clinical characteristics of the patients, such as, sex, age and body mass index (BMI) and the clinical characteristics affecting mCRC prognosis in the existing research reports (such as, primary tumor site, pathological grading, metastatic site, first-line chemotherapy regimen and KRAS genotype) were collected to exclude confounding factors, thus making the influences of metformin on the overall survival (OS) of the mCRC patients with T2DM and the progression free survival (PFS) of the first-line chemotherapy clear.
GraphPad Prism 7 was used to draw a Kaplan-Meier curve, and Log-rank (Mantel-Cox) statistical analysis was performed; stratified HR was additionally used to make a statistics on the influences on OS and PFS between different hypoglycemic agents use and the without anti-diabetic treatments.
A stratified Cox proportional hazard model was used for stratification on the above collected clinical characteristics to explore the individual factors influencing the efficacy of metformin.
After through the proportional hazard assumption, it is further assumed that sex, age, BMI, primary tumor site, pathological grading, metastatic site, and KRAS genotype may serve as confounding factors to make an impact on the anti-tumor effect of metformin. Therefore, hierarchical regression analysis was performed on the above clinical characteristics, thus determining the individual difference interacting with metformin.

[2] = tested on: KRAS mutation CRC cells HCT-116; test: Cell viability (CCK-8 method); assay type: cell-based, human
Description: (§1) The cells were inoculated on a plate according to the concentration of 5000 cells/well (48-well plate, 200 μl per well). The cells were treated with different ways according to the experimental requirements, and 10 μl CCK8 solution was added after a period of time. The cells were incubated for 1 h in an incubator; 200 μl supernatant were absorbed into a 96-well ELISA plate to determine OD450 with a microplate reader.
(§2) (2) Metformin with a gradient concentration was used in vitro to treat KRAS wildtype colorectal cancer cell lines SW48 and CaCO2, KRAS G13D-mutation colorectal cancer cell lines HCT-116 and LoVo, as well as KRAS G12V-mutation colorectal cancer cell lines SW480 and SW620. In addition, the metformin with a gradient concentration was used to treat the KRAS wildtype colorectal cancer cell line SW48 transfected with KRAS G12V, KRAS G13D and KRAS G12D plasmids.
(§3) 5 μM and 10 μM lansoprazole were used to treat HCT-116 and LoVo simultaneously; metformin was used to treat the cells at the same time for 48 h; the cell viability was detected by CCK8.

[3] = tested on: KRAS mutation CRC cells LoVo; test: Cell viability (CCK-8 method); assay type: cell-based, human
Description: as §1, §2, §3

[4] = tested on: KRAS G13D, G12D and G12V mutation colorectal cancer cells; test: Cell viability, metformin with a gradient concentration; assay type: cell-based, human; details: FIG. 6
[5] = tested on: KRAS mutation CRC cells LoVo; test: Cell cycle, PI/RNase staining, flow cytometry; assay type: cell-based, human; details: 24 h, FIG. 8C
Description: (§4) 1) The cells were inoculated onto a 6-well plate, and subjected to adherence growth for 12 h, then starvation treatment over the night, and treated with the addition of an agent for 24 h, then the cells were digested and washed for 3 times with PBS and centrifuged to discard supernatant; −20° C. pre-cooled 70% ethanol was added dropwise, and the cells were mixed well by vortex, and immobilized over the night at −20° C.
(§5) 2) The cells were horizontally centrifuged for 10 min at 2000 rpm to discard the supernatant; then the cells were washed with PBS for 2-3 times to remove the residual ethanol with centrifugation for 5 min each time.
(§6) 3) The cells were resuspended by 500 μL PI/RNase dyeing liquor, and incubated for 15 min in the dark, and put on a flow cytometry within 2 h for detection, and 488 nm wavelength was stimulated.
(§7) 4) FlowJo 7.6 software was used for graphing analysis.

[6] = tested on: KRAS wildtype CRC cells SW48; test: Cell cycle, PI/RNase staining, flow cytometry; assay type: cell-based, human; details: 24 h, FIG. 8C
Description: as §4, §5, §6, §7

[7] = tested on: SW48 KRAS (G13D) cell line; test: Proliferation / cell cycle in CRISPR/Cas9 KRAS (G13D) cells; assay type: cell-based, human; details: relative to SW48, FIG. 8E
[8] = Concentration of metformin in tumor tissues by mass spectrometry; assay type: in vivo; details: KRAS mutation vs KRAS wildtype tumor tissues, FIG. 11F
Source text: The concentration of metformin in KRAS wildtype and mutation tumor tissues was detected by mass spectrometry.

[9] = tested on: colorectal cancer cells (LoVo, SW48) with altered MATE1; test: Proliferation with MATE1 over-expressed on LoVo or interfered on SW48; assay type: cell-based, human; details: FIGS. 12E-F
[10] = metformin use vs non-metformin use, Age at diagnosis <60 years
[11] = metformin use vs non-metformin use, Age at diagnosis ≥60 years
[12] = metformin use vs non-metformin use, BMI Normal (18.5~23.0)
[13] = metformin use vs non-metformin use, BMI Pre- & obese (>23.0)
[14] = metformin use vs non-metformin use, KRAS genotype Wildtype
[15] = metformin use vs non-metformin use, Metastatic site Liver
[16] = metformin use vs non-metformin use, Metastatic site Multiple sites
[17] = metformin use vs non-metformin use, Moderately differentiated
[18] = metformin use vs non-metformin use, Poorly & un-differentiated
[19] = metformin use vs non-metformin use, Primary site Left colon
[20] = metformin use vs non-metformin use, Primary site Rectum
[21] = metformin use vs non-metformin use, Primary site Right colon
[22] = metformin use vs non-metformin use, Sex: Female
[23] = metformin use vs non-metformin use, Sex: Male
[24] = vs nonusers of hypoglycemic agents, stratified by age at diagnosis, adjusted for sex, BMI, primary site, metastatic site, pathological grading, KRAS genotype
[25] = with 5 μM and 10 μM lansoprazole, 48 h, FIGS. 11A-B

CN(C)C(=N)N=C(N)N [metformin]
overall survival, Kaplan-Meier curve ([1]; KRAS mutation mCRC patients, P<0.001, FIGS. 3A-B): significantly extends | progression free survival of first-line chemotherapy, Kaplan-Meier curve ([1]; KRAS mutation mCRC patients, P<0.01, FIGS. 3A-B): significantly extends | efficacy on OS and PFS, Kaplan-Meier curve ([1]; KRAS wildtype mCRC patients, FIGS. 3C-D): has no efficacy | extension of median survival ([1]; Kaplan-Meier, mCRC patients with T2DM, P=0.022, FIG. 2): 11.3 months | OS HR (95% CI) [1, 10]: 0.869 | PFS HR (95% CI) [1, 10]: 1.074 | OS HR (95% CI) [1, 11]: 0.596 | PFS HR (95% CI) [1, 11]: 0.562 | OS HR (95% CI) [1, 12]: 0.582 | PFS HR (95% CI) [1, 12]: 0.884 | OS HR (95% CI) [1, 13]: 0.702 | PFS HR (95% CI) [1, 13]: 0.555 | OS HR (95% CI) [1, 14]: 1.487 | PFS HR (95% CI) [1, 14]: 1.194 | OS HR (95% CI) [1, 15]: 1.151 | PFS HR (95% CI) [1, 15]: 0.949 | OS HR (95% CI) [1, 16]: 1.008 | PFS HR (95% CI) [1, 16]: 0.818 | OS HR (95% CI) [1, 17]: 0.676 | PFS HR (95% CI) [1, 17]: 0.644 | OS HR (95% CI) [1, 18]: 0.629 | PFS HR (95% CI) [1, 18]: 0.811 | OS HR (95% CI) [1, 19]: 0.982 | PFS HR (95% CI) [1, 19]: 0.823 | OS HR (95% CI) [1, 20]: 0.475 | PFS HR (95% CI) [1, 20]: 0.544 | OS HR (95% CI) [1, 21]: 0.729 | PFS HR (95% CI) [1, 21]: 0.622 | OS HR (95% CI) [1, 22]: 0.944 | PFS HR (95% CI) [1, 22]: 0.697 | OS HR (95% CI) [1, 23]: 0.673 | PFS HR (95% CI) [1, 23]: 0.732 | OS HR (95% CI) [1, 24]: 0.356 | PFS HR (95% CI) [1, 24]: 0.630 | IC50 ([2]; Homo sapiens, HCT-116, CCK8, FIG. 10): 23.7 mM | increase of IC50 of metformin after lansoprazole [2, 25]: 1.2-2.5 times | IC50 ([3]; Homo sapiens, LoVo, CCK8, FIG. 10): 8.18 mM | increase of IC50 of metformin after lansoprazole [3, 25]: 1.2-2.5 times | effect on cell viability [4]: has an inhibiting effect | ratio of phase S cells [5]: reduces | ratio of G1 cells ([5]; concentration dependent): dependently increases | cell cycle distribution (G1, phase S) [6]: no obvious effect | inhibiting effect on proliferation of tumor cells with cell cycle after KRAS (G13D) mutation [7]: enhances the inhibiting effect | concentration of metformin in tumor tissues [8]: higher than that in the KRAS wildtype tumor tissues | inhibiting effect on proliferation with down-regulated expression of MATE1 [9]: accelerating the inhibiting effect
